Experimental data reported in PMC12368479, “Inhibition of the Clathrin Terminal Domain—Amphiphysin Protein–Protein Interaction. Probing the Pitstop 2 Aromatic Moiety” (Chemmedchem, 2025).
Where two headings read alike, the source gives them in different places.

Columns and labels:
[1] = biological target: T1, clathrin heavy chain NTD (amino acids 1–364) – amphiphysin 1 B/C domain protein–protein interaction (NTD‐PPI) (Homo sapiens, UniProt Q00610); assay: ELISA-based clathrin inhibitor binding assay (NTD-PPI); details: ELISA; for IC50: read-out: NTD‐PPI IC50
T1 construct: GST‐tagged clathrin heavy chain NTD (amino acids 1–364); made in house
T1 sequence (Q00610 1-364): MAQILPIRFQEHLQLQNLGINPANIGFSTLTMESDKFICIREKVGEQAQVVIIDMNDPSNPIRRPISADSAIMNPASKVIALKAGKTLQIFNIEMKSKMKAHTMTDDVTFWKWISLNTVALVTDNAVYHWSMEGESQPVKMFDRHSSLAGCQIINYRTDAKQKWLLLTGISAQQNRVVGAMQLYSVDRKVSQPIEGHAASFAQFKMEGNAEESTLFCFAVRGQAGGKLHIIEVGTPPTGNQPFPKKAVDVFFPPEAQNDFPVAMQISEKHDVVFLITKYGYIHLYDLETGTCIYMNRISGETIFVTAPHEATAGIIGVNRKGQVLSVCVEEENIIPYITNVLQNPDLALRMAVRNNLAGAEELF
Description: The clathrin inhibitor assay was based inhibition of protein–protein interaction (PPI) between clathrin and amphiphysin as described in our previous report.^[ [45], [54] ^] Bacterially expressed recombinant purified His6‐tagged amphiphysin 1 B/C domain (which comprises both the clathrin and the AP‐2 binding sites, amino acids 250‐578^[ [55] ^]) in screening buffer (20 mM HEPES, pH 7.4, 50 mM NaCl, 1 mM DTT, 1 mM PMSF) was added to a 384 well ELISA plate (Corning Maxisorp 3700) and bound to the plastic for 1 h at room temperature. […] Following extensive washes (with 20 mM HEPES, pH 7.4, 50 mM NaCl, 0.05% Tween 20), chemical compounds diluted in DMSO (10 μL) were added and incubated together with bacterially expressed recombinant GST‐tagged clathrin heavy chain NTD (amino acids 1–364) for 1 h at room temperature in screening buffer. After 3 washes, horseradish peroxidase‐coupled anti‐GST antibodies were added in screening buffer and the plate incubated for 40 min at room temperature. Following additional washes, 50 μL TMB (3,3′,5,5′‐tetramethylbenzidine) (Pierce Biotechnology) chromogenic substrate of horseradish peroxidase was added, and the plate was incubated for 10 min before the reaction was terminated by adding 50 μL 1N sulfuric acid to produce a yellow colour. The amount of bound protein was determined by spectrophotometric measurement in a plate reader. Relative binding was calculated as a percentage of DMSO control.

[2] = biological target: T2, full length human Dynamin I (Homo sapiens, UniProt Q05193); assay: Dynamin GTPase activity, Malachite Green phosphate detection assay; format: biochemical
T2 construct: full length human Dynamin I expressed in Sf21 insect cells; made in house; host or cells: Sf21 insect cells
T2 sequence (Q05193 1-864): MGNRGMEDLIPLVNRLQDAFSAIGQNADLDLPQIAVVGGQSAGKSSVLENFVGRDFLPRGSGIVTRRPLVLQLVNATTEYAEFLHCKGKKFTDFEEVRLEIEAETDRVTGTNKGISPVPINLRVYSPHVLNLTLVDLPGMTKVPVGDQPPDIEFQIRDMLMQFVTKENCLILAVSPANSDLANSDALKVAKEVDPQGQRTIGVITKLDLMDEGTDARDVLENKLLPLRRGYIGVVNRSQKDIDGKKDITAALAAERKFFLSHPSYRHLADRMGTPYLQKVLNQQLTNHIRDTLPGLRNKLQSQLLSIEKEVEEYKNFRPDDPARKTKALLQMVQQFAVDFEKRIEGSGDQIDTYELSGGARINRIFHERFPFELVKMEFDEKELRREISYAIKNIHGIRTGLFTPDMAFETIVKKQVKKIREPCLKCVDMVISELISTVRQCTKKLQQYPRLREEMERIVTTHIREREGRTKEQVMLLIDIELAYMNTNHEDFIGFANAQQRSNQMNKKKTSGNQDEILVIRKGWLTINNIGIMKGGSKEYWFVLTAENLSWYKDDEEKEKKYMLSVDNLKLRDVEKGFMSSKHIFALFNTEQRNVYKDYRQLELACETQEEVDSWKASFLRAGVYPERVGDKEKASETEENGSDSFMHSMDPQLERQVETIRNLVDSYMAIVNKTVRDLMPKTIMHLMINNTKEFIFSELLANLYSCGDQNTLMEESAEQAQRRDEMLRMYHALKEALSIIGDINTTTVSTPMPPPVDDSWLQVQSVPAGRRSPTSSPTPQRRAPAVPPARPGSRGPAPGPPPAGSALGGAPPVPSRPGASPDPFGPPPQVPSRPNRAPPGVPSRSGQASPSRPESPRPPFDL
Description: Dynamin GTPase activity was determined in vitro using the Malachite Green phosphate detection absorbance‐based assay within a 96‐well plate format as described previously. The enzyme source was full length human Dynamin I expressed in Sf21 insect cells and affinity‐purified on GST‐Amph2‐SH3 (rat Amphiphysin 2 (494–588)).^[ [56] ^]

[3] = Table 1, library 1, average of duplicate measurements (n=2)
[4] = Table 1, library 1, n = 1 unless noted (19: n = 2), '–' = not active at 150 μM, read-out: Dyn 1 IC50
[5] = values quoted in running text (section 2.2), read-out: Dynamin IC50
[6] = Table 2, library 2, average of duplicate measurements (n=2)
[7] = Table 2, library 2, n = 3, triplicate, '–' = not active at 100 μM, read-out: Dyn 1 IC50
[8] = Table 3, library 3, average of duplicate measurements (n = 2)

| SMILES | IC50 [2, 4] | IC50 [2, 7] | further results |
| --- | --- | --- | --- |
| O=C1N=C(NS(=O)(=O)c2cccc3ccccc23)S/C1=C\c1ccccc1O [compound 8, (Z)‐N‐(5‐(2‐hydroxybenzylidene)‐4‐oxo‐4,5‐dihydrothiazol‐2‐yl)naphthalene‐1‐sulfonamide] | > 150 µM |  | IC50 [1, 3]: 2.1 µM |
| N#Cc1ccc(/C=C2\SC(NS(=O)(=O)c3cccc4ccccc34)=NC2=O)cc1 [compound 11, (Z)‐N‐(5‐(4‐cyanobenzylidene)‐4‐oxo‐4,5‐dihydrothiazol‐2‐yl)naphthalene‐1‐sulfonamide] | > 150 µM |  |  |
| N#Cc1cccc(/C=C2\SC(NS(=O)(=O)c3cccc4ccccc34)=NC2=O)c1 [compound 12, (Z)‐N‐(5‐(3‐cyanobenzylidene)‐4‐oxo‐4,5‐dihydrothiazol‐2‐yl)naphthalene‐1‐sulfonamide] | > 150 µM |  | IC50 [1, 3]: 5.7 µM |
| O=C1N=C(NS(=O)(=O)c2cccc3ccccc23)SC1=Cc1ccccc1-c1ccccc1 [compound 16, N‐(5‐([1,1'‐biphenyl]‐2‐ylmethylene)‐4‐oxo‐4,5‐dihydrothiazol‐2‐yl)naphthalene‐1‐sulfonamide] | > 150 µM |  |  |
| O=C1N=C(NS(=O)(=O)c2cccc3ccccc23)SC1=Cc1cccc(-c2ccccc2)c1 [compound 17, N‐(5‐([1,1'‐biphenyl]‐3‐ylmethylene)‐4‐oxo‐4,5‐dihydrothiazol‐2‐yl)naphthalene‐1‐sulfonamide] | > 150 µM |  | IC50 [1, 3]: 4.02 µM |
| CC(=O)Nc1ccc(/C=C2\SC(NS(=O)(=O)c3cccc4ccccc34)=NC2=O)cc1 [compound 19, (Z)‐N‐(4‐((2‐(naphthalene‐1‐sulfonamido)‐4‐oxothiazol‐5(4H)‐ylidene)methyl)phenyl)acetamide] | 93 ± 2.5 µM |  | IC50 [1, 3]: 3.5 µM; IC50 [2, 5]: 92.7 µM |
| CC(C)(C)c1ccc(/C=C2\SC(NS(=O)(=O)c3cccc4ccccc34)=NC2=O)cc1 [compound 20, (Z)‐N‐(5‐(4‐(tert‐butyl)benzylidene)‐4‐oxo‐4,5‐dihydrothiazol‐2‐yl)naphthalene‐1‐sulfonamide] | > 150 µM |  |  |
| CC(C)c1ccc(/C=C2\SC(NS(=O)(=O)c3cccc4ccccc34)=NC2=O)cc1 [compound 21, (Z)‐N‐(5‐(4‐isopropylbenzylidene)‐4‐oxo‐4,5‐dihydrothiazol‐2‐yl)naphthalene‐1‐sulfonamide] | > 150 µM |  | IC50 [1, 3]: 4.1 µM |
| CCCc1ccc(/C=C2\SC(NS(=O)(=O)c3cccc4ccccc34)=NC2=O)cc1 [compound 22, (Z)‐N‐(4‐oxo‐5‐(4‐propylbenzylidene)‐4,5‐dihydrothiazol‐2‐yl)naphthalene‐1‐sulfonamide] | ~91 µM |  | IC50 [2, 5]: 91 µM |
| CCCCc1ccc(/C=C2\SC(NS(=O)(=O)c3cccc4ccccc34)=NC2=O)cc1 [compound 23, (Z)‐N‐(5‐(4‐butylbenzylidene)‐4‐oxo‐4,5‐dihydrothiazol‐2‐yl)naphthalene‐1‐sulfonamide] | ~103 µM |  | IC50 [2, 5]: 103 µM |
| O=C1N=C(NS(=O)(=O)c2cccc3ccccc23)S/C1=C\c1cccc(O)c1O [compound 24, (Z)‐N‐(5‐(2,3‐dihydroxybenzylidene)‐4‐oxo‐4,5‐dihydrothiazol‐2‐yl)naphthalene‐1‐sulfonamide] |  | 85 µM | fold less active (NTD‐PPI) than 25 and 27 ([1]; relative to 2,4‐dihydroxyphenyl 25 and 3,4‐dihydroxyphenyl 27): 3 fold; IC50 [1, 6]: 3.9 µM |
| O=C1N=C(NS(=O)(=O)c2cccc3ccccc23)S/C1=C\c1ccc(O)cc1O [compound 25, (Z)‐N‐(5‐(2,4‐dihydroxybenzylidene)‐4‐oxo‐4,5‐dihydrothiazol‐2‐yl)naphthalene‐1‐sulfonamide] |  | 61.2 ± 7.5 µM |  |
| O=C1N=C(NS(=O)(=O)c2cccc3ccccc23)S/C1=C\c1cc(O)ccc1O [compound 26, (Z)‐N‐(5‐(2,5‐dihydroxybenzylidene)‐4‐oxo‐4,5‐dihydrothiazol‐2‐yl)naphthalene‐1‐sulfonamide] |  | 70 ± 5.3 µM |  |
| O=C1N=C(NS(=O)(=O)c2cccc3ccccc23)S/C1=C\c1ccc(O)c(O)c1 [compound 27, (Z)‐N‐(5‐(3,4‐dihydroxybenzylidene)‐4‐oxo‐4,5‐dihydrothiazol‐2‐yl)naphthalene‐1‐sulfonamide] |  | 50.4 ± 8.4 µM |  |
| O=C1N=C(NS(=O)(=O)c2cccc3ccccc23)S/C1=C\C1CC=CCC1 (centres unmarked) [compound 39, (Z)‐N‐(5‐(cyclohex‐3‐en‐1‐ylmethylene)‐4‐oxo‐4,5‐dihydrothiazol‐2‐yl)naphthalene‐1‐sulfonamide] |  |  | IC50 [1, 8]: 4.3 µM |
| O=C1N=C(NS(=O)(=O)c2cccc3ccccc23)S/C1=C\C1CCCCC1 [compound 40, (Z)‐N‐(5‐(cyclohexylmethylene)‐4‐oxo‐4,5‐dihydrothiazol‐2‐yl)naphthalene‐1‐sulfonamide] |  |  | IC50 ([2]; Table 3, library 3, n = 1 unless otherwise stated (41, 42: n = 2), '–' = not active at 100 μM, read-out: Dynamin 1 IC50): > 100 µM |
| CCCCCCC/C=C1\SC(NS(=O)(=O)c2cccc3ccccc23)=NC1=O [compound 43, (Z)‐N‐(5‐octylidene‐4‐oxo‐4,5‐dihydrothiazol‐2‐yl)naphthalene‐1‐sulfonamide] |  |  | IC50 [1, 8]: 5.9 µM |

Second part, led by results:

| IC50 [2, 4] | IC50 [2, 7] | SMILES | further results |
| --- | --- | --- | --- |
|  | 34.3 ± 3.4 µM | O=C1N=C(NS(=O)(=O)c2cccc3ccccc23)S/C1=C\c1ccc(O)c(O)c1O [compound 28, (Z)‐N‐(4‐oxo‐5‐(2,3,4‐trihydroxybenzylidene)‐4,5‐dihydrothiazol‐2‐yl)naphthalene‐1‐sulfonamide] |  |
|  | > 100 µM | COc1cccc(/C=C2\SC(NS(=O)(=O)c3cccc4ccccc34)=NC2=O)c1OC [compound 29, (Z)‐N‐(5‐(2,3‐dimethoxybenzylidene)‐4‐oxo‐4,5‐dihydrothiazol‐2‐yl)naphthalene‐1‐sulfonamide] |  |
|  | > 100 µM | COc1ccc(/C=C2\SC(NS(=O)(=O)c3cccc4ccccc34)=NC2=O)c(OC)c1 [compound 30, (Z)‐N‐(5‐(2,4‐dimethoxybenzylidene)‐4‐oxo‐4,5‐dihydrothiazol‐2‐yl)naphthalene‐1‐sulfonamide] | IC50 [1, 6]: 1 µM |
|  | 91 µM | COc1ccc(/C=C2\SC(NS(=O)(=O)c3cccc4ccccc34)=NC2=O)cc1OC [compound 31, (Z)‐N‐(5‐(3,4‐dimethoxybenzylidene)‐4‐oxo‐4,5‐dihydrothiazol‐2‐yl)naphthalene‐1‐sulfonamide] | IC50 [1, 6]: 2.2 µM |
|  | > 100 µM | COc1cc(/C=C2\SC(NS(=O)(=O)c3cccc4ccccc34)=NC2=O)cc(OC)c1 [compound 32, (Z)‐N‐(5‐(3,5‐dimethoxybenzylidene)‐4‐oxo‐4,5‐dihydrothiazol‐2‐yl)naphthalene‐1‐sulfonamide] |  |
|  | > 100 µM | O=C1N=C(NS(=O)(=O)c2cccc3ccccc23)S/C1=C\c1ccc(F)c(F)c1 [compound 38, (Z)‐N‐(5‐(3,4‐difluorobenzylidene)‐4‐oxo‐4,5‐dihydrothiazol‐2‐yl)naphthalene‐1‐sulfonamide] |  |
